Experimental data as given in ChEMBL document CHEMBL1139695, “Development of pyrimidine-based inhibitors of Janus tyrosine kinase 3” (Bioorg Med Chem Lett, 2006).

Legend:
[1] = system: TF-1; experiment: cells; details: Homo sapiens
Description: Inhibition of IL4-induced proliferation of TF1 cells

[2] = system: TF-1; experiment: cells; details: Homo sapiens; remark: listed apart in the source
Description: Inhibition of IL3-induced proliferation of TF1 cells

IC50 [1]: 335 nM
IC50 [2]: 635 nM
SMILES: C[C@H](Nc1ccnc(-n2cnc3ccncc32)n1)c1ccc(F)cc1
